Measured values published in US12157741B2, “Macrocyclic inhibitors of DYRK1A” (DANA-FARBER CANCER INSTITUTE, INC., priority 2018, dated 2024).
Where two headings read alike, the source gives them in different places.

Assays:
Assay type in all cases: binding
various enzymes [1] = biological target: various enzymes (Homo sapiens, UniProt O43683); conditions: compound 1 uM
Description: (§1) Ambit profiling was conducted in accordance with the manufacturer's instructions.

various enzymes [2] = biological target: various enzymes (Homo sapiens, UniProt O95819); conditions: compound 1 uM
Description: as §1

various enzymes [3] = biological target: various enzymes (Homo sapiens, UniProt P00533, L861Q)
Description: as §1

various enzymes [4] = biological target: various enzymes (Homo sapiens, UniProt P04626); conditions: compound 1 uM
Description: as §1

various enzymes [5] = biological target: various enzymes (Homo sapiens, UniProt P15056); conditions: compound 1 uM
Description: as §1

various enzymes [6] = biological target: various enzymes (Homo sapiens, UniProt P20794); conditions: compound 1 uM
Description: as §1

various enzymes [7] = biological target: various enzymes (Homo sapiens, UniProt P22694); conditions: compound 1 uM
Description: as §1

various enzymes [8] = biological target: various enzymes (Homo sapiens, UniProt P36507); conditions: compound 1 uM
Description: as §1

various enzymes [9] = biological target: various enzymes (Homo sapiens, UniProt P45983); conditions: compound 1 uM
Description: as §1

various enzymes [10] = biological target: various enzymes (Homo sapiens, UniProt P54646); conditions: compound 1 uM
Description: as §1

various enzymes [11] = biological target: various enzymes (Homo sapiens, UniProt P54760); conditions: compound 1 uM
Description: as §1

various enzymes [12] = biological target: various enzymes (Homo sapiens, UniProt P57078); conditions: compound 1 uM
Description: as §1

various enzymes [13] = biological target: various enzymes (Homo sapiens, UniProt Q00526); conditions: compound 1 uM
Description: as §1

various enzymes [14] = biological target: T1, various enzymes (Homo sapiens, UniProt Q13043); conditions: compound 1 uM
T1 sequence (Q13043 1-487): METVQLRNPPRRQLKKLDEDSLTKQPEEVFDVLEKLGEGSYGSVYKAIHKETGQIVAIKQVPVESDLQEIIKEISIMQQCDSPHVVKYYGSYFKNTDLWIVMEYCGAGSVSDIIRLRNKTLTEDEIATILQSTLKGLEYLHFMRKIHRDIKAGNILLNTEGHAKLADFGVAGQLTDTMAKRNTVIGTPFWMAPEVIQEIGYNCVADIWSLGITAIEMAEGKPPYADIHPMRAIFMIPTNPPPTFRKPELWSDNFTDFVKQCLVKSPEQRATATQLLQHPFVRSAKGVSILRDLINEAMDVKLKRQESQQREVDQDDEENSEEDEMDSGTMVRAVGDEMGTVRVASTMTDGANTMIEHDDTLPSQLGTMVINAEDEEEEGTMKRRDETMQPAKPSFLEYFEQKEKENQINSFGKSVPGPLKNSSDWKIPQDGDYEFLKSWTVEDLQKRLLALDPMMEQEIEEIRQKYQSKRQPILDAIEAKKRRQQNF
Description: as §1

various enzymes [15] = biological target: various enzymes (Homo sapiens, UniProt Q13882); conditions: compound 1 uM
Description: as §1

various enzymes [16] = biological target: various enzymes (Homo sapiens, UniProt Q16512); conditions: compound 1 uM
Description: as §1

various enzymes [17] = biological target: various enzymes (Homo sapiens, UniProt Q5S007); conditions: compound 1 uM
Description: as §1

various enzymes [18] = biological target: T2, various enzymes (Homo sapiens, UniProt Q6PHR2); conditions: compound 1 uM
T2 sequence (Q6PHR2 1-472): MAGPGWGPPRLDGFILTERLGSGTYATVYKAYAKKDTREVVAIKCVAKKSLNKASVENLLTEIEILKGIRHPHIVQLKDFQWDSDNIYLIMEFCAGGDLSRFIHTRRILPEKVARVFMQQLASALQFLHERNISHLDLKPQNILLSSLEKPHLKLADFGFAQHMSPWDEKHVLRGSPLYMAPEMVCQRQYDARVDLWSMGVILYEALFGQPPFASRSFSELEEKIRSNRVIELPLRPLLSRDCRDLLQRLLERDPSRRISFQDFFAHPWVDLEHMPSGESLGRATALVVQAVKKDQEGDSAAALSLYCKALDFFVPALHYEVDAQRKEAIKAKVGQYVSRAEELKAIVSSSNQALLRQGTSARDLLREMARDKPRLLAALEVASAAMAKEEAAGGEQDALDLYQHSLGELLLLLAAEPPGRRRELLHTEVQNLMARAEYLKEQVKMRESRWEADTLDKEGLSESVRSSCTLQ
Description: as §1

various enzymes [19] = biological target: various enzymes (Homo sapiens, UniProt Q6ZN16); conditions: compound 1 uM
Description: as §1

various enzymes [20] = biological target: various enzymes (Homo sapiens, UniProt Q86UX6); conditions: compound 1 uM
Description: as §1

various enzymes [21] = biological target: various enzymes (Homo sapiens, UniProt Q8NE63); conditions: compound 1 uM
Description: as §1

various enzymes [22] = biological target: various enzymes (Homo sapiens, UniProt Q8WU08); conditions: compound 1 uM
Description: as §1

various enzymes [23] = biological target: various enzymes (Homo sapiens, UniProt Q92630); conditions: compound 1 uM
Description: as §1

various enzymes [24] = biological target: various enzymes (Homo sapiens, UniProt Q96Q40); conditions: compound 1 uM
Description: as §1

various enzymes [25] = biological target: various enzymes (Homo sapiens, UniProt Q99759); conditions: compound 1 uM
Description: as §1

various enzymes [26] = biological target: various enzymes (Homo sapiens, UniProt Q9BWU1); conditions: compound 1 uM
Description: as §1

various enzymes [27] = biological target: various enzymes (Homo sapiens, UniProt Q9H0K1); conditions: compound 1 uM
Description: as §1

various enzymes [28] = biological target: various enzymes (Homo sapiens, UniProt Q9NRH2); conditions: compound 1 uM
Description: as §1

various enzymes [29] = biological target: various enzymes (Homo sapiens, UniProt Q9NYL2); conditions: compound 1 uM
Description: as §1

various enzymes [30] = biological target: various enzymes (Homo sapiens, UniProt Q9UKE5); conditions: compound 1 uM
Description: as §1

various enzymes [31] = biological target: various enzymes (Homo sapiens, UniProt Q9UPZ9); conditions: compound 1 uM
Description: as §1

various enzymes [32] = biological target: various enzymes (Homo sapiens, UniProt Q9Y6R4); conditions: compound 1 uM
Description: as §1

Chain of various enzymes (Homo sapiens, UniProt Q96Q40) (Q96Q40 whole entry): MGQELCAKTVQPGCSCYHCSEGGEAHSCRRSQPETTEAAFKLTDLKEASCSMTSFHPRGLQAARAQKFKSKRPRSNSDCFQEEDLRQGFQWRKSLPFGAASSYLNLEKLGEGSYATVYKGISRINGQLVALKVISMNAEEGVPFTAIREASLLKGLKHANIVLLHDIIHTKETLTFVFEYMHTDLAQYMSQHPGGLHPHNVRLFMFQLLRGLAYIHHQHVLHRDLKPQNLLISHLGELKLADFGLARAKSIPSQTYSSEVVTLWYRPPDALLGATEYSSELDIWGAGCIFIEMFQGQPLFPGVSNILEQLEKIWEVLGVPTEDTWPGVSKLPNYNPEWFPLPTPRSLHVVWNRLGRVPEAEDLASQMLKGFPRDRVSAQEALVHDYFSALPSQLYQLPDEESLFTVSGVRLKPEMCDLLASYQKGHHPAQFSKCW
Chain of various enzymes (Homo sapiens, UniProt P36507) (P36507 whole entry): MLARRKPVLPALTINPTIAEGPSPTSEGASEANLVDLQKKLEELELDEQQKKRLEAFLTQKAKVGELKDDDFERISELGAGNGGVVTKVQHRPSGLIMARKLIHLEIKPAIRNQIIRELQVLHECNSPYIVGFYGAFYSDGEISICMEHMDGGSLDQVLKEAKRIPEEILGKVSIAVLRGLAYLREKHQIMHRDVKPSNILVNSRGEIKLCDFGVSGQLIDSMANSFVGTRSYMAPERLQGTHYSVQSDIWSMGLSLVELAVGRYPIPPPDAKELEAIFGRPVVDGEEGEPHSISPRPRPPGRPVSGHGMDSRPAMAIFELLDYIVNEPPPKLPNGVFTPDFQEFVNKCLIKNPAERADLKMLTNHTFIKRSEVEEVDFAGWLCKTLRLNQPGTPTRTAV
Chain of various enzymes (Homo sapiens, UniProt P57078) (P57078 whole entry): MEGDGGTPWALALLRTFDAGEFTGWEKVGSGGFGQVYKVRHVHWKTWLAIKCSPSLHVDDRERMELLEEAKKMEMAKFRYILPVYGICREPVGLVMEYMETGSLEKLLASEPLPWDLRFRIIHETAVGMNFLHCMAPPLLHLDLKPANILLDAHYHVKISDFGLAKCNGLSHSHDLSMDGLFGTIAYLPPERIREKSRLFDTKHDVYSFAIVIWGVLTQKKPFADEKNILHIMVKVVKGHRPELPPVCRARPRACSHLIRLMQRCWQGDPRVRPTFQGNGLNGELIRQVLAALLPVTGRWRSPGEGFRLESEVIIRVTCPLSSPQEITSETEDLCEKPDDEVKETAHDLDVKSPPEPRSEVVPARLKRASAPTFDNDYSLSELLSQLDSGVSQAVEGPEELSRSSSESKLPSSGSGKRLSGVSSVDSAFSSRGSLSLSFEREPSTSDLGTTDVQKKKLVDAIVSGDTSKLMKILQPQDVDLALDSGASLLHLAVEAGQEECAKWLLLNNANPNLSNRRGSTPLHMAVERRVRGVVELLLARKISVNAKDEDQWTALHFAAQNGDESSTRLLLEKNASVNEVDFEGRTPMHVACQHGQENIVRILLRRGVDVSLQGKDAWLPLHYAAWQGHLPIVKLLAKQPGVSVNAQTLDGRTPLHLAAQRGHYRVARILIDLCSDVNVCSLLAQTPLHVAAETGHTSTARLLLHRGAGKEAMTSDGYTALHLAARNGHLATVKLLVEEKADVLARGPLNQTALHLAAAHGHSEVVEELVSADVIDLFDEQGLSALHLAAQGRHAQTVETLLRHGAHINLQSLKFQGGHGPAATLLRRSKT
Chain of various enzymes (Homo sapiens, UniProt Q99759) (Q99759 whole entry): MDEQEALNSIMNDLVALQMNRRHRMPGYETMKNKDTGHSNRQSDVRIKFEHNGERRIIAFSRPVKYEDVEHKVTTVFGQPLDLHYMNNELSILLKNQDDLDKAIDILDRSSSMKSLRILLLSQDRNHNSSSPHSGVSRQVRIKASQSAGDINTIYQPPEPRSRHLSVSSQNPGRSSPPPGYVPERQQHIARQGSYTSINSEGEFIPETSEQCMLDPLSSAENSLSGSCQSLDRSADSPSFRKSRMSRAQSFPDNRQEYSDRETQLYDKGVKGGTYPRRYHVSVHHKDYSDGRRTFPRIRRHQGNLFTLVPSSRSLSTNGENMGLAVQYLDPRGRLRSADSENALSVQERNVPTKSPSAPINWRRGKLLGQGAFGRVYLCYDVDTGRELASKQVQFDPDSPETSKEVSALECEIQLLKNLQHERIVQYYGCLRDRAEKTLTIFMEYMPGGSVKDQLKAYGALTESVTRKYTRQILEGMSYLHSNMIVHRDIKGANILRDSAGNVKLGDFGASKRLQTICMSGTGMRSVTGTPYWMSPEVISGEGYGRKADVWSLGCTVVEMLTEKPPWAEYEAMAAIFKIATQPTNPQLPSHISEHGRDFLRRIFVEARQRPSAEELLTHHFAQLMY
Chain of various enzymes (Homo sapiens, UniProt Q9UPZ9) (Q9UPZ9 whole entry): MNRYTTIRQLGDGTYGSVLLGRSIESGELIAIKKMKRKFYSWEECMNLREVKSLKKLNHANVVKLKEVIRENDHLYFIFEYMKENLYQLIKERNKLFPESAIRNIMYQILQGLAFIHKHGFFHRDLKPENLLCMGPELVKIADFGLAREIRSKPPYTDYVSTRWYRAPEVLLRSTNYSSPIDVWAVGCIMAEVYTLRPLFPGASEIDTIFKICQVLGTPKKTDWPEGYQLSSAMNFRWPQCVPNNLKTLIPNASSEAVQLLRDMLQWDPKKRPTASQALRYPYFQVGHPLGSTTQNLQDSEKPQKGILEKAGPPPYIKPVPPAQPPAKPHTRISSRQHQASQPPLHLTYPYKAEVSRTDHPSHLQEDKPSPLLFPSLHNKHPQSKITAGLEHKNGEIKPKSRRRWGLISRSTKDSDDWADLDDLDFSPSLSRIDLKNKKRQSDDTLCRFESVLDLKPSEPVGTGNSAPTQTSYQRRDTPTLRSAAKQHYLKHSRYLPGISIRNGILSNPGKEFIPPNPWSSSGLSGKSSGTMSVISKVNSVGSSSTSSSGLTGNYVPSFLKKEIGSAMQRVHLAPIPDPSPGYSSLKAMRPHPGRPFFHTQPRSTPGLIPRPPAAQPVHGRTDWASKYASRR
Chain of various enzymes (Homo sapiens, UniProt Q13882) (Q13882 whole entry): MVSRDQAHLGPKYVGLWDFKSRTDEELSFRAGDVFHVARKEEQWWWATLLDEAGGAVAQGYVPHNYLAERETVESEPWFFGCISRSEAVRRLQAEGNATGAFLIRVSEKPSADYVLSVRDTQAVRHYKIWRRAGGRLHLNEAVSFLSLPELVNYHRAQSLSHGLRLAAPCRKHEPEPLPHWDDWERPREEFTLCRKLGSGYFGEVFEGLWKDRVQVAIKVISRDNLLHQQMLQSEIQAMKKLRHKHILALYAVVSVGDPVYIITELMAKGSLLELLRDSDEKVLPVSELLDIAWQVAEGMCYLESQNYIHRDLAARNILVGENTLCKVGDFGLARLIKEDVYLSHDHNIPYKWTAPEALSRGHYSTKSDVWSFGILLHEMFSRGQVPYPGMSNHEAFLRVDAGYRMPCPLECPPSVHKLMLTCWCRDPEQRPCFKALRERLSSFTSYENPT
Chain of various enzymes (Homo sapiens, UniProt Q9BWU1) (Q9BWU1 whole entry): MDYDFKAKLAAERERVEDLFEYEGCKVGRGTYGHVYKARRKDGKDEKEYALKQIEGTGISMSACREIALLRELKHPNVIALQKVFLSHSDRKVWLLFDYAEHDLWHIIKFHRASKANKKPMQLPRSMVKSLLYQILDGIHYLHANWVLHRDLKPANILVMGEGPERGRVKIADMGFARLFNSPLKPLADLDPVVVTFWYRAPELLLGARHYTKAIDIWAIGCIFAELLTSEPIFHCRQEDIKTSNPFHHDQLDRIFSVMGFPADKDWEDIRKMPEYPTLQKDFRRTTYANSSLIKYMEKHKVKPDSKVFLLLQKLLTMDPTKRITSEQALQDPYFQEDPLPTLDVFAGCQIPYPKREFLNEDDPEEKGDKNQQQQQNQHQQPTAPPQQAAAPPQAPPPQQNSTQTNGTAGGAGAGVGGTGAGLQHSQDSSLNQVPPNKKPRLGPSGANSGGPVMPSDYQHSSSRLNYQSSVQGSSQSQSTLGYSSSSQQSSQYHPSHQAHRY
Chain of various enzymes (Homo sapiens, UniProt Q9H0K1) (Q9H0K1 whole entry): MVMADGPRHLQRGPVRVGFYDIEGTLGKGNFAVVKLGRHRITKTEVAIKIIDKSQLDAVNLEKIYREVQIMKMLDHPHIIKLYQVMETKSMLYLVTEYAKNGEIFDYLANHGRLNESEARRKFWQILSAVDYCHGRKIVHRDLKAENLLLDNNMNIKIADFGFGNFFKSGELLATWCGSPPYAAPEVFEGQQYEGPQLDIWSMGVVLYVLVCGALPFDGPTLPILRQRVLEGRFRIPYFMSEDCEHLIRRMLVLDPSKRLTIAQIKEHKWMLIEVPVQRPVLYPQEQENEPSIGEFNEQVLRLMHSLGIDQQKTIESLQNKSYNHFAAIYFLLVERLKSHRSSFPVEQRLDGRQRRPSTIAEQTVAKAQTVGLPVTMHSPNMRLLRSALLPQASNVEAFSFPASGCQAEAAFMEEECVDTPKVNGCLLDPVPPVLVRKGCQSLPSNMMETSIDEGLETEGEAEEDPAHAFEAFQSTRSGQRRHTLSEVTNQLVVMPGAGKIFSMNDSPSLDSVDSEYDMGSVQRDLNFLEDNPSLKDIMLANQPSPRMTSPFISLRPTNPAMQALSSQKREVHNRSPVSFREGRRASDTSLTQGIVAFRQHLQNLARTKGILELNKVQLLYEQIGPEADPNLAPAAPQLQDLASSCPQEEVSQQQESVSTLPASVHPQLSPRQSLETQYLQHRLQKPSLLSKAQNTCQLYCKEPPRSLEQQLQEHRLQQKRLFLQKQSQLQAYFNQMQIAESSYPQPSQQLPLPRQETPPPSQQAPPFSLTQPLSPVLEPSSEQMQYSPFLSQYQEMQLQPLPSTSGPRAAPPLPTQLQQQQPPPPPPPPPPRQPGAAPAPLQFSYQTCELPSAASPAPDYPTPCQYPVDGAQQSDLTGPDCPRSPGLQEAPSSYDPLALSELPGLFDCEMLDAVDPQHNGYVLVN

Row | Compound | Ambit profiling: BUB1 (various enzymes [1]) | Ambit profiling: MAP4K4 (various enzymes [2]) | Ambit profiling: ERBB2 (various enzymes [4]) | Ambit profiling: BRAF (various enzymes [5]) | Ambit profiling: MAK (various enzymes [6]) | Ambit profiling: PKAC-beta (various enzymes [7]) | Ambit profiling: MEK2 (various enzymes [8]) | Ambit profiling: JNK1 (various enzymes [9]) | Ambit profiling: AMPK-alpha2 (various enzymes [10]) | Ambit profiling: EPHB4 (various enzymes [11]) | Ambit profiling: RIPK4 (various enzymes [12]) | Ambit profiling: CDK3 (various enzymes [13]) | Ambit profiling: MST1 (various enzymes [14]) | Ambit profiling: BRK (various enzymes [15]) | Ambit profiling: PKN1 (various enzymes [16]) | Ambit profiling: LRRK2 (various enzymes [17]) | Ambit profiling: ULK3 (various enzymes [18]) | Ambit profiling: MAP3K15 (various enzymes [19]) | Ambit profiling: YANK3 (various enzymes [20]) | Ambit profiling: HIPK4 (various enzymes [21]) | further results
1 | CC(C)N1Cc2nn(C)cc2-c2cnc3[nH]cc(c3c2)-c2cn(nc2C(F)(F)F)CCCC1=O [Compound 45, (Z)-5-isopropyl-31-methyl-13-(trifluoromethyl)-11H,21H,31H-5-aza-2(3,5)-pyrrolo[2,3-b]pyridina-1(4,1),3(4,3)-dipyrazolacyclononaphan-6-one] | 81 | 3.5 | 100 | 100 | 34 | 54 | 12 | 18 | 87 | 76 | 100 | 33 | 2.8 | 100 | 72 | 44 | 30 | 84 | 100 | 2.1 | Ambit profiling: EGFR(L861Q) (various enzymes [3]; compound 1 uM): 28; Ambit profiling: YANK1 (various enzymes [22]): 100; Ambit profiling: DYRK2 (various enzymes [23]): 25; Ambit profiling: PFTAIRE2 (various enzymes [24]): 39; Ambit profiling: MAP3K3 (various enzymes [25]): 0.35; Ambit profiling: CDK11 (various enzymes [26]): 100; Ambit profiling: SIK2 (various enzymes [27]): 27; Ambit profiling: SNRK (various enzymes [28]): 100; Ambit profiling: ZAK (various enzymes [29]): 45; Ambit profiling: TNIK (various enzymes [30]): 5.6; Ambit profiling: ICK (various enzymes [31]): 0.95; Ambit profiling: MAP3K4 (various enzymes [32]): 94
2 | COc1c2c(nn1C)CN(C(C)C)C(=O)CCCn1cc(c(C(F)(F)F)n1)-c1c[nH]c3ncc-2cc13 [Compound 50, (Z)-5-isopropyl-35-methoxy-31-methyl-13-(trifluoromethyl)-11H,21H,31H-5-aza-2(3,5)-pyrrolo[2,3-b]pyridina-1(4,1),3(4,3)-dipyrazolacyclononaphan-6-one] | 35 | 3 | 86 | 87 | 77 | 45 | 11 | 4.1 | 57 | 40 | 85 | 78 | 2.2 | 80 | 34 | 50 | 73 | 76 | 74 | 1.5 | Ambit profiling: EGFR(L861Q) (various enzymes [3]): 17; Ambit profiling: YANK1 (various enzymes [22]): 24; Ambit profiling: DYRK2 (various enzymes [23]): 56; Ambit profiling: PFTAIRE2 (various enzymes [24]): 60; Ambit profiling: MAP3K3 (various enzymes [25]): 0.3; Ambit profiling: CDK11 (various enzymes [26]): 49; Ambit profiling: SIK2 (various enzymes [27]): 32; Ambit profiling: SNRK (various enzymes [28]): 86; Ambit profiling: ZAK (various enzymes [29]): 58; Ambit profiling: TNIK (various enzymes [30]): 13; Ambit profiling: ICK (various enzymes [31]): 12; Ambit profiling: MAP3K4 (various enzymes [32]): 60
